Consider 19 molecules from patent publication US8415272B2, “Quinoline derivatives and their use as fungicides” (Syngenta Crop Protection LLC, priority 2008, dated 2013).

The subject of one data set is Phytophthora infestans. Description: whole plant or invertebrate. Particulars: in Solanum lycopersicum, foliar, 96 h, read-out: control of fungal infection, Phytophthora infestans. Format: in vivo.
A further data set has as its system Plasmopara viticola. In words: Leaf disk assay, Plasmopara viticola (downy mildew of grapevine), preventive. The class given is in vivo. Particulars: foliar, 168 h, grapevine leaf disks, assessed seven days after inoculation, read-out: control of fungal infection, Plasmopara viticola.
Another data set relates to Botrytis cinerea. Description: Leaf disk assay, Botrytis cinerea (grey mould) on bean, preventive. Format: in vivo. As to conditions: foliar, 96 h, bean leaf disks, assessed four days after inoculation, read-out: control of fungal infection, Botrytis cinerea.
Data set [1] concerns Erysiphe graminis f.sp. tritici. In words: Leaf disk assay, Erysiphe graminis f.sp. tritici (wheat powdery mildew), preventive. Format: in vivo. Particulars: Blumeria graminis, foliar, 96 h, wheat leaf segments, assessed four days after inoculation, read-out: control of fungal infection, Erysiphe graminis f.sp. tritici. Put shortly:
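Wheat leaf segments on agar were sprayed with compound at 200 ppm (DMSO stock diluted in water). After 12–24 h drying they were inoculated with powdery mildew spores. Preventive activity was scored 4 days after inoculation.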

Data set [2] deals with Puccinia recondita f.sp. tritici. Description: Leaf disk assay, Puccinia recondita f.sp. tritici (wheat brown rust), preventive. Format: in vivo. As to conditions: foliar, 216 h, wheat leaf segments, assessed nine days after inoculation, read-out: control of fungal infection, Puccinia recondita f.sp. tritici.
The next data set has as its system Pyrenophora teres. In words: Leaf disk assay, Pyrenophora teres (barley net blotch), preventive. Format: in vivo. As to conditions: foliar, 96 h, barley leaf segments, assessed four days after inoculation, read-out: control of fungal infection, Pyrenophora teres. Summed up:
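Barley leaf segments on agar were sprayed with compound at 200 ppm (from DMSO stock diluted in water) and dried for 12-24 h before inoculation with a Pyrenophora teres spore suspension. Preventive fungicidal activity was scored 4 days after inoculation.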

A further data set concerns Septoria nodorum. In words: Leaf disk assay, Septoria nodorum (wheat glume blotch), preventive. The class given is in vivo. Particulars: Parastagonospora nodorum, foliar, 96 h, wheat leaf segments, assessed four days after inoculation, read-out: control of fungal infection, Septoria nodorum.
The next data set relates to Septoria tritici. In words: Growth inhibition in nutrient broth, Septoria tritici (leaf blotch), photometric. Particulars: Zymoseptoria tritici, PDB broth, 24 C, 72 hrs, read-out: control of fungal infection, Septoria tritici. The class given is cell-based.
Another data set concerns Pythium ultimum. In words: Growth inhibition in potato dextrose broth, Pythium ultimum (damping off), photometric. The class given is cell-based. Particulars: Globisporangium ultimum, 24° C., 48 hours, read-out: control of fungal infection, Pythium ultimum. Put shortly: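 Growth inhibition was read photometrically at 48 hours after incubation at 24° C. Test compound was diluted from DMSO to 20 ppm in water and combined with potato dextrose broth seeded with Pythium ultimum mycelial fragments.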

The subject of the next data set is Fusarium culmorum. Description: Growth inhibition in nutrient broth, Fusarium culmorum (root rot), photometric. The class given is cell-based. Particulars: 48 h, read-out: control of fungal infection, Fusarium culmorum. Summed up: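 Fusarium culmorum conidia in potato dextrose broth were added to compounds in DMSO. Plates were incubated at 24 C for 48 hrs, with growth inhibition read photometrically. […]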

As to `C#Cc1cnc2ccc(OC(SC)C(=O)NC3(C)COC3)cc2c1` (stereo not drawn) [Compound 186, 2-(3-Ethynyl-quinolin-6-yloxy)-N-(3-methyl-oxetan-3-yl)-2-methylsulfanyl-acetamide], the melting point – broadly, the temperature of the solid-liquid transition – is 61 to 65 °C.
On the same count and under the same terms, as for `C#Cc1cnc2c(F)cc(OC(SC)C(=O)NC(C)C)cc2c1` (stereo not drawn) [Compound 222, 2-(3-Ethynyl-8-fluoro-quinolin-6-yloxy)-N-isopropyl-2-methylsulfanyl-acetamide], the figure is 135 to 136 °C.
`C#CCOCC#CC(C)(C)NC(=O)C(Oc1cc(Cl)c2ncc(C#C)cc2c1)SC` (stereo not drawn) [Example 63]: the pest or weed control at 200 ppm (in the data set on Phytophthora infestans; in the data set on Plasmopara viticola; with Botrytis cinerea; in [1]; in data set [2]; in the data set with Pyrenophora teres) was at least 60% in each case. Besides, the pest or weed control at 200 ppm in the data set with Septoria nodorum was at least 60%. In the data set with Septoria tritici, the inhibition of growth at 60 ppm was at least 60%. Besides, the inhibition of growth at 20 ppm in the data set on Pythium ultimum is at least 60%.
Take `COCC#Cc1cnc2ccc(OC(SC)C(=O)NC(C)(C)C#CCOC)cc2c1` (stereo not drawn) [Example 44]: the pest or weed control at 200 ppm (in the data set with Phytophthora infestans; in the data set with Plasmopara viticola; in the data set on Botrytis cinerea; in data set [1]) was at least 60% throughout. For the same molecule, the inhibition of growth at 60 ppm with Septoria tritici is at least 60%. The inhibition of growth at 20 ppm with Pythium ultimum is at least 60%.
Molecule `C#Cc1cnc2ccc(OC(SC)C(=O)N(O)C(C)(C)C)cc2c1` (stereo not drawn) [Compound 147, N-tert-Butyl-2-(3-ethynyl-quinolin-6-yloxy)-N-hydroxy-2-methylsulfanyl-acetamide] displayed a melting point of 164 °C.
In the case of `C#CCOCCC(C)(C#N)NC(=O)C(Oc1ccc2ncc(C#C)cc2c1)SC` (stereo not drawn) [Example 72], the pest or weed control at 200 ppm (in the data set with Phytophthora infestans; in the data set with Plasmopara viticola; in the data set with Botrytis cinerea; in data set [1]; in data set [2]; with Pyrenophora teres) was at least 60% throughout. Also, the pest or weed control at 200 ppm in the data set on Septoria nodorum was at least 60%. In addition, the inhibition of growth at 60 ppm in the data set on Septoria tritici was at least 60%. In addition, the inhibition of growth at 20 ppm in the data set with Pythium ultimum was at least 60%.
For `C#Cc1cnc2c(C)cc(OC(SC)C(=O)NC(C)(C)C=O)cc2c1` (stereo not drawn) [Example 73], the pest or weed control at 200 ppm (with Phytophthora infestans; in the data set with Plasmopara viticola; with Botrytis cinerea; in [1]; in the data set with Pyrenophora teres; in the data set with Septoria nodorum) was at least 60% each time. For the same molecule, the inhibition of growth at 60 ppm in the data set with Septoria tritici was at least 60%. In addition, in the data set on Pythium ultimum, the inhibition of growth at 20 ppm was at least 60%.
In the case of `CSC(Oc1cc(C)c2ncc(C#CCO)cc2c1)C(=O)NC(C)(C)C` (stereo not drawn) [Example 17], the pest or weed control at 200 ppm in the data set on Phytophthora infestans, with Plasmopara viticola and in the data set on Botrytis cinerea was at least 60% each time. For the same molecule, in the data set on Septoria tritici, the inhibition of growth at 60 ppm is at least 60%. The inhibition of growth at 20 ppm with Pythium ultimum was at least 60%.
In the case of `C#CCC(C)(C)NC(=O)C(Oc1ccc2ncc(C#C)cc2c1)SC` (stereo not drawn) [Example 31], the pest or weed control at 200 ppm (in the data set on Phytophthora infestans; in the data set with Plasmopara viticola; with Botrytis cinerea; in data set [1]; in data set [2]; in the data set with Pyrenophora teres) was at least 60% throughout. Also, the pest or weed control at 200 ppm in the data set with Septoria nodorum was at least 60%. Further, the inhibition of growth at 60 ppm in the data set on Septoria tritici and with Fusarium culmorum was at least 60% throughout. Moreover, the inhibition of growth at 20 ppm in the data set on Pythium ultimum was at least 60%.
As to `COCC#CC(C)(C)NC(=O)C(Oc1cc(C)c2ncc(C#CCO)cc2c1)SC` (stereo not drawn) [Example 28], the pest or weed control at 200 ppm in the data set with Phytophthora infestans and in the data set with Botrytis cinerea was at least 60% in each case. The inhibition of growth at 20 ppm in the data set on Pythium ultimum is at least 60%.
With `C#CCC(C)(C)NC(=O)C(Oc1cc(Cl)c2ncc(C#C)cc2c1)SC` (stereo not drawn) [Example 75], the pest or weed control at 200 ppm (in the data set on Phytophthora infestans; in the data set with Plasmopara viticola; in the data set with Botrytis cinerea; in [1]; in [2]; in the data set on Pyrenophora teres) was at least 60% throughout. Further, the pest or weed control at 200 ppm with Septoria nodorum is at least 60%. Moreover, the inhibition of growth at 60 ppm in the data set on Septoria tritici and in the data set with Fusarium culmorum was at least 60% throughout. Besides, the inhibition of growth at 20 ppm in the data set on Pythium ultimum was at least 60%.
Regarding `C#Cc1cnc2c(Cl)cc(OC(SC)C(=O)NC(C)(C)C#CC)cc2c1` (stereo not drawn) [Example 20], the pest or weed control at 200 ppm (in the data set on Phytophthora infestans; in the data set on Plasmopara viticola; in the data set on Botrytis cinerea; in data set [1]; in [2]; in the data set on Pyrenophora teres) was at least 60% throughout. Besides, in the data set with Septoria nodorum, the pest or weed control at 200 ppm was at least 60%. The inhibition of growth at 60 ppm with Septoria tritici and in the data set with Fusarium culmorum was at least 60% in each case. The inhibition of growth at 20 ppm in the data set with Pythium ultimum was at least 60%.
On to `C#Cc1cnc2cc(F)c(OC(SC)C(=O)NC(C)(C)C#CCOC)cc2c1` (stereo not drawn) [Example 66], for which the pest or weed control at 200 ppm (in the data set on Phytophthora infestans; in the data set on Plasmopara viticola; with Botrytis cinerea; in data set [1]; in data set [2]; with Pyrenophora teres) was at least 60% throughout. Also, in the data set with Septoria nodorum, the pest or weed control at 200 ppm is at least 60%. For the same molecule, the inhibition of growth at 60 ppm with Septoria tritici and with Fusarium culmorum was at least 60% throughout. Further, the inhibition of growth at 20 ppm in the data set on Pythium ultimum is at least 60%.
Take `CC#CC(C)(C)NC(=O)C(Oc1ccc2ncc(C#CCOC)cc2c1)SC` (stereo not drawn) [Example 45]: the pest or weed control at 200 ppm (in the data set on Phytophthora infestans; with Plasmopara viticola; in the data set with Botrytis cinerea; in [1]) was at least 60% in each case. In addition, the inhibition of growth at 60 ppm in the data set on Septoria tritici was at least 60%. Also, the inhibition of growth at 20 ppm in the data set with Pythium ultimum is at least 60%.
For the molecule `C#Cc1cnc2c(Br)cc(OC(SC)C(=O)NC(C)(C)C#CCOC)cc2c1` (stereo not drawn) [Example 70], the pest or weed control at 200 ppm (with Phytophthora infestans; in the data set with Plasmopara viticola; in the data set with Botrytis cinerea; in data set [1]; in data set [2]; in the data set with Pyrenophora teres) was at least 60% each time. The pest or weed control at 200 ppm in the data set on Septoria nodorum is at least 60%. Besides, the inhibition of growth at 60 ppm in the data set on Septoria tritici was at least 60%. Also, the inhibition of growth at 20 ppm in the data set with Pythium ultimum is at least 60%.
Consider `CC#CC(C)(C)NC(=O)C(OC)Oc1ccc2ncc(C#C[Si](C)(C)C)cc2c1` (stereo not drawn) [Example 79], for which the pest or weed control at 200 ppm (in the data set on Phytophthora infestans; with Plasmopara viticola; with Botrytis cinerea; in data set [1]) was at least 60% each time. Besides, the inhibition of growth at 60 ppm in the data set with Septoria tritici is at least 60%.
For the molecule `C#CCOCC(C)(C)NC(=O)C(Oc1ccc2ncc(C#C)cc2c1)SC` (stereo not drawn) [Example 30], the pest or weed control at 200 ppm (with Phytophthora infestans; in the data set on Plasmopara viticola; with Botrytis cinerea; in data set [1]; in data set [2]; with Pyrenophora teres) was at least 60% in each case. The pest or weed control at 200 ppm in the data set on Septoria nodorum is at least 60%. For the same molecule, the inhibition of growth at 60 ppm with Septoria tritici and in the data set with Fusarium culmorum was at least 60% throughout. In addition, in the data set on Pythium ultimum, the inhibition of growth at 20 ppm is at least 60%.
As to `CC#Cc1cnc2ccc(OC(SC)C(=O)NC(C)(C)C#CC)cc2c1` (stereo not drawn) [Example 56], the pest or weed control at 200 ppm (with Phytophthora infestans; with Plasmopara viticola; with Botrytis cinerea; in data set [1]; in the data set with Septoria nodorum) was at least 60% in each case. Further, in the data set on Septoria tritici, the inhibition of growth at 60 ppm was at least 60%. Besides, the inhibition of growth at 20 ppm in the data set on Pythium ultimum was at least 60%.
As to `C#Cc1cnc2ccc(OC(SC)C(=O)NC(C)(C)CC)cc2c1` (stereo not drawn) [Example 94], the pest or weed control at 200 ppm (in the data set on Phytophthora infestans; in the data set with Plasmopara viticola; in data set [1]; in [2]; in the data set with Pyrenophora teres; with Septoria nodorum) was at least 60% each time. Further, the inhibition of growth at 60 ppm with Septoria tritici and with Fusarium culmorum was at least 60% each time. For the same molecule, the inhibition of growth at 20 ppm in the data set with Pythium ultimum is at least 60%.
